{"source": "patent US6569612B1", "about": "“Photographic element containing a high-dye-yield coupler for producing a yellow hue” (Eastman Kodak Company, priority 2001, dated 2003)", "assay": "Measuring pKas of couplers in TRITON X-100 media", "format": "physicochemical", "protocol": "Procedure for Measuring pKas of Couplers in TRITONX-100 Media:\nA solution of the coupler that was ca. 5E-3 M was made with 5.0 mL of dimethyl sulfoxide solvent. A 0.50-mL aliquot of the solution was added to 3.18 g of Triton X- 100 surfactant in a 50-mL volumetric flask. Then ca. 25 mL of ca. 40-deg C. distilled water was added while swirling vigorously. The solution was then cooled to ambient temperature and diluted to 50 mL with water. Various phosphate buffer solutions as potassium salts were prepared with pHs ranging from 3.73 to 12 with ionic strength of 0.75. Ionic strength computations were done using the three pKas for phosphoric acid. A 2.0-mL aliquot of the stock coupler solution was mixed with 2.0 mL of chosen buffer in a 5-dram vial. […] A wavelength between 310 and 350 nm was typically chosen. The pH of the mixture was then measured with a CORNING Model 125 meter. A baseline reference blank spectrum was run with TRITON X-100 (surfactant) and pH 7 buffer. The data of corrected absorbances (differences from the blank spectrum) and pHs were used to compute by least-squares the pKa and the other two unknowns of high and low limiting densities. The pKa measurements are made with an experimental uncertainty within ±0.10, which depends on sources of material, the number of experimental points, number of replicates, and the like.", "key": {"[1]": {"conditions": "Table 3, TRITON X-100 media, read-out: pKa"}, "[2]": {"conditions": "Table 5, TRITON X-100 media, read-out: pKa"}, "[3]": {"conditions": "Table 7, TRITON X-100 media, read-out: pKa"}, "[4]": {"conditions": "Table 4, TRITON X-100 media, read-out: pKa"}, "[5]": {"conditions": "Table 8, TRITON X-100 media, read-out: pKa"}}, "note": "Where two headings read alike, the source gives them in different places."}
{"smiles": "CCCCCCCCCCCCOC(=O)c1ccc(Cl)c(NC(=O)C(C(=O)c2ccc(OC)cc2)N2C(=O)C(OCC)N(Cc3ccccc3)C2=O)c1", "note": "(stereo not drawn) [CY-1, reference compound]", "values": [{"measurement": "pKa", "setting": "[1]", "result": 5.1}]}
{"smiles": "CCC(C)(C)c1cc(C(C)(C)CC)c2oc(/C(C#N)=C/c3ccc(N(C(=O)OC(C(=O)Nc4cc(CS(=O)(=O)c5ccccc5)ccc4Cl)C(=O)c4ccc(OC)cc4)C4CCCC4)cc3C)nc2c1", "note": "(stereo not drawn) [CY-4, reference compound]", "values": [{"measurement": "pKa", "setting": "[1]", "result": 10.6}]}
{"smiles": "CCC(C)(C)c1cc(C(C)(C)CC)c2oc(/C(C#N)=C/c3ccc(N(C(=O)OC(C(=O)Nc4cc(CS(=O)(=O)c5ccc(O)cc5)ccc4Cl)C(=O)c4ccc(OC)cc4)C4CCCC4)cc3C)nc2c1", "note": "(stereo not drawn) [CY-5, reference compound]", "values": [{"measurement": "pKa", "setting": "[1]", "result": 10}]}
{"smiles": "CCCCCCCCCCCCOC(=O)c1ccc(Cl)c(NC(=O)C(OC(=O)N(C)c2ccc(/C=C(\\C#N)c3nc4cc(C(C)(C)C)ccc4o3)c(C)c2)C(=O)c2ccc(OC)cc2)c1", "note": "(stereo not drawn) [CY-7, reference compound]", "values": [{"measurement": "pKa", "setting": "[1]", "result": 9.1}]}
{"smiles": "CCCCCCCCCCCCNS(=O)(=O)c1ccc(NC(=O)C(OC(=O)N(c2ccc(/C=C(\\C#N)c3nc4cc(C(C)(C)C)ccc4o3)c(C)c2)C2CCCC2)C(=O)c2ccc(OC)cc2)c(Cl)c1", "note": "(stereo not drawn) [CY-8, reference compound]", "values": [{"measurement": "pKa", "setting": "[2]", "result": 9.5}]}
{"smiles": "CCCCCCCCCCCCCCCCNS(=O)(=O)c1ccc(Cl)c(NC(=O)C(OC(=O)N(CCCCCCCCCCCC)c2ccc(/C=C(\\C#N)c3nc4ccccc4o3)c(C)c2)C(=O)c2ccc(OC)cc2)c1", "note": "(stereo not drawn) [CY-12, reference compound]", "values": [{"measurement": "pKa", "setting": "standard measurement, read-out: pKa at the coupling site", "result": 8.7}]}
{"smiles": "CCCCCCCCCCCCCCCCNS(=O)(=O)c1ccc(Cl)c(NC(=O)C(OC(=O)N(CCCC)c2ccc(/C=C(\\C#N)c3nc4ccccc4o3)c(C)c2)C(=O)c2ccc(OC)cc2)c1", "note": "(stereo not drawn) [CY-13, reference compound]", "values": [{"measurement": "pKa", "setting": "[3]", "result": 8.8}]}
{"smiles": "CCCCCCCCCCCCS(=O)(=O)c1ccc(NC(=O)C(OC(=O)N(C)c2ccc(/C=C(\\C#N)c3nc4cc(C(C)(C)C)ccc4o3)c(C)c2)C(=O)c2ccccc2)c(Cl)c1", "note": "(stereo not drawn) [Coupler Y-1]", "values": [{"measurement": "pKa", "setting": "[1]", "result": 7.4}]}
{"smiles": "CCCCCCCCCCCCCCCCNS(=O)(=O)c1ccc(Cl)c(NC(=O)C(OC(=O)N(C)c2ccc(/C=C(\\C#N)c3nc4cc(C(C)(C)C)ccc4o3)c(C)c2)C(=O)c2ccc(OC)cc2)c1", "note": "(stereo not drawn) [Coupler Y-2]", "values": [{"measurement": "pKa", "setting": "[1]", "result": 8.5}]}
{"smiles": "CCCCCCCCCCCCS(=O)(=O)c1ccc(NC(=O)C(OC(=O)N(c2ccc(/C=C(\\C#N)c3nc4cc(C(C)(C)C)ccc4o3)c(C)c2)C2CCCC2)C(=O)c2ccccc2)c(Cl)c1", "note": "(stereo not drawn) [Coupler Y-3]", "values": [{"measurement": "pKa", "setting": "[4]", "result": 7.8}]}
{"smiles": "COc1ccc(C(=O)C(OC(=O)N(c2ccc(/C=C(\\C#N)c3nc4cc(C(C)(C)C)ccc4o3)c(C)c2)C2CCCC2)C(=O)Nc2ccc([N+](=O)[O-])cc2Cl)cc1", "note": "(stereo not drawn) [Coupler Y-4]", "values": [{"measurement": "pKa", "setting": "[4]", "result": 8.2}]}
{"smiles": "CCC(C)(C)c1cc(C(C)(C)CC)c2oc(/C(C#N)=C/c3ccc(N(C(=O)OC(C(=O)Nc4ccc([N+](=O)[O-])cc4Cl)C(=O)c4ccccc4)C4CCCC4)cc3C)nc2c1", "note": "(stereo not drawn) [Coupler Y-5]", "values": [{"measurement": "pKa", "setting": "[2]", "result": 7.4}]}
{"smiles": "CCCCCCCCCCCCNS(=O)(=O)c1ccc(NC(=O)C(OC(=O)N(c2ccc(/C=C(\\C#N)c3nc4ccccc4o3)c(C)c2)C2CCCC2)C(=O)c2ccccc2)c(Cl)c1", "note": "(stereo not drawn) [Coupler Y-9]", "values": [{"measurement": "pKa", "setting": "[3]", "result": 8}]}
{"smiles": "CCCCCCCCCCCCS(=O)(=O)c1ccc(NC(=O)C(OC(=O)N(c2ccc(/C=C(\\C#N)c3nc4ccccc4o3)c(C)c2)C2CCCC2)C(=O)c2ccc(Cl)cc2)c(Cl)c1", "note": "(stereo not drawn) [Coupler Y-10]", "values": [{"measurement": "pKa", "setting": "[5]", "result": 7.2}]}
{"smiles": "CCCCCCCCCCCCS(=O)(=O)c1ccc(NC(=O)C(OC(=O)N(CC)c2ccc(/C=C(\\C#N)c3nc4cc(C(C)(C)CC(C)(C)C)ccc4o3)c(C)c2)C(=O)c2ccc(Cl)cc2)c(Cl)c1", "note": "(stereo not drawn) [Coupler Y-11]", "values": [{"measurement": "pKa", "setting": "[5]", "result": 7}]}
